The source made the active and inactive calls. No rule for the calls is given here. A value given as a limit tells only on which side of the number the result lay.

The target in the assay is Hepatocyte nuclear factor 4-alpha (Homo sapiens) (UniProt P41235). The assay can be described thus: IC50 for blocking HNF4 dimer formation – biochemical, luminescence, late stage, counter-screen for ABHD5-PLIN5 interaction inhibitor project, dose response (AID 651760). Particulars: HNF4 dimerization, luminescence biochemical assay. (In general: A counterscreen serves to expose hits that act by an unwanted route or on another target.)
Sequence of Hepatocyte nuclear factor 4-alpha (Homo sapiens) (P41235 whole entry, looked up): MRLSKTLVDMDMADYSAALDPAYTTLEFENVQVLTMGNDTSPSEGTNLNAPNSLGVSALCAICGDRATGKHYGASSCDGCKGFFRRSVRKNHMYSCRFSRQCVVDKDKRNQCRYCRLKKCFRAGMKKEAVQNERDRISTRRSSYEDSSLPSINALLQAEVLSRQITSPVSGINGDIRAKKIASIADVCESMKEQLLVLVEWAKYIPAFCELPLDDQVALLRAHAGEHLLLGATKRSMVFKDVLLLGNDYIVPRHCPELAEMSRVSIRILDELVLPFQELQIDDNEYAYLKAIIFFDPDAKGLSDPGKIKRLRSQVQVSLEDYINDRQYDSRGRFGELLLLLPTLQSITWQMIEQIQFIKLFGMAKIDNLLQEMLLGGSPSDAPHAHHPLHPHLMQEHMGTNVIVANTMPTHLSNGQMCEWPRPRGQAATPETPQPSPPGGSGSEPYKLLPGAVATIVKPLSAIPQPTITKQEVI
As to `CCCNC(=O)Nc1ccc2c(c1)N(C)C(=O)c1ccccc1S2`, the IC50 is > 39.8 µM (inactive). In the case of `CCOC(=O)c1c(NC(=O)/C=C/C(=O)O)sc(C)c1-c1ccc(C(C)(C)C)cc1` it was 8.97 µM; in that of `CN(C)CCCN(C(=O)CCc1ccccc1)c1nc2ccc(Cl)cc2s1`, > 39.8 µM (inactive); in that of `CN(C)CCOC1(Cc2ccc(F)cc2)CCC(C(C)(C)C)CC1` (stereo not given), > 39.8 µM (inactive).

For `CCN(CC)CCOc1ccc(/C(=C(/Cl)c2ccccc2)c2ccccc2)cc1`, the IC50 is 5.09 µM.

On to `Cc1ccc2nc3cc([N+](=O)[O-])cc([N+](=O)[O-])c3cc2c1`, for which the IC50 result is “inactive”.

For the compound `CN(C)CCN(Cc1ccco1)c1ccccn1`, the IC50 is > 39.8 µM (inactive). Regarding `FC(F)(F)c1cccc(NC(=S)N(CCCN2CCCC2)Cc2cccn2Cc2ccc(Cl)cc2)c1`, the IC50 is > 39.8 µM (inactive). `CCOC(=O)c1c(NC(C)=O)sc2c1CCC(C=O)=C2Sc1ccccc1`: the IC50 result is “inactive”. On to `O=c1[nH]c(C2CCN(S(=O)(=O)c3ccc(S(=O)(=O)NC4CC4)cc3)CC2)nc2c1nnn2Cc1ccc(F)cc1`, for which the IC50 is > 39.8 µM (inactive). The same measure for `COc1ccccc1-c1cc(C(=O)NC2CCN(C)CC2)c2ccc(Cl)c(C)c2n1`: > 39.8 µM (inactive). As to `COCCN(CCOC)c1nc(N)c2c(N)nc3c(c2c1C#N)CC(=O)N3Cc1ccc(Cl)cc1`, the IC50 was > 39.8 µM (inactive). In the case of `CCN(CC)CCOCCOC(=O)C1(c2ccccc2)CCCC1` it was 6.03 µM; in that of `CC1CCN(S(=O)(=O)c2ccc(NC(=O)Cc3cccs3)cc2)CC1`, > 39.8 µM (inactive). Turning to `O=C(C[n+]1cccc(CNC(=O)c2ccc(OC(F)F)cc2)c1)Nc1cccc(C(F)(F)F)c1`, the IC50 is > 39.8 µM (inactive). The same measure for `CC(=O)Cc1cc(O)c2ccccc2c1OC(=O)c1ccc(Br)cc1`: “inactive”. As for `C=C[C@]1(C)C[C@@H](OC(=O)CSCCN(CC)CC)[C@]2(C)C(C)CC[C@]3(CCC(=O)[C@H]32)[C@@H](C)[C@@H]1O` (stereo not given in full), the IC50 was > 39.8 µM (inactive).

Regarding `Cc1cc(C)c(NC(=O)CN2CCN3CCCC3C2)c(C)c1` (stereo not given), the IC50 was > 39.8 µM (inactive).

For the compound `O=c1[nH]c(C2CCN(S(=O)(=O)c3ccc(F)cc3)CC2)nc2c1nnn2Cc1ccc2c(c1)OCCO2`, the IC50 is > 39.8 µM (inactive). In the case of `CCOc1cc(N)c(Cl)cc1C(=O)NCC1CN(Cc2ccc(F)cc2)CCO1` (stereo not given), the IC50 was 4.18 µM. In the case of `CN1CCC(=C2c3ccccc3CC(=O)c3sccc32)CC1` it was > 39.8 µM (inactive). Take `COc1cc2c(cc1OC)C(C)N(CCc1ccc(Cl)cc1)CC2` (stereo not given): the IC50 is > 39.8 µM (inactive). With `CCCCNC(=O)Nc1ccc2c(c1)N(C)C(=O)c1ccccc1S2`, the IC50 is > 39.8 µM (inactive). Take `CCN(CC)CCN(CC(=O)Nc1c(C)cc(C)cc1C)C(=O)c1ccccc1`: the IC50 is > 39.8 µM (inactive).

As for `Cc1nc2c(o1)CCc1ccccc1C2N1CCN(C)CC1` (stereo not given), the IC50 is > 39.8 µM (inactive). For `CC(=O)Nc1ccc(S(=O)(=O)N2c3ccc(F)cc3CCC2C)cc1` (stereo not given), the IC50 was > 39.8 µM (inactive). In the case of `CCCCOC(=O)Nc1cc(C(=O)OC)ccc1C(=O)OC`, the IC50 was > 39.8 µM (inactive).

In the case of `COc1ccc(C)c2sc(N(CCN(C)C)C(=O)/C=C/c3cccs3)nc12`, the IC50 entry was “inactive”. Take `CC1CCN(S(=O)(=O)c2ccc(NC(=O)Cc3ccccc3)cc2)CC1`: the IC50 was > 39.8 µM (inactive). As to `NC(=NCCCCCCN=C(N)/N=C(\N)Nc1ccc(Cl)cc1)/N=C(\N)Nc1ccc(Cl)cc1`, the IC50 entry is “inactive”.

As for `O=C(/C(=C/O)N=Nc1ccc(Cl)cc1)c1ccncc1`, the IC50 result is “inactive”.

For `CCN(CC)CCC(C)OC(c1ccccc1)c1ccccc1` (stereo not given), the IC50 was 5.57 µM. Take `CC(C)c1ccc(N2C=Nc3ccc(C(C)C)cc3C2)cc1`: the IC50 is 2.8 µM.

On to `COc1ccc(NC(=S)N(CCCN2CCCC2)Cc2cccn2Cc2ccc(Cl)cc2)cc1Cl`, for which the IC50 was > 39.8 µM (inactive). Take `CC(=O)Cc1cc(O)c2ccccc2c1OC(=O)c1ccccc1`: the IC50 was 8.21 µM.

In the case of `COc1cc(OC)cc(C(=O)NC(=S)N(Cc2ccccc2)C(C)C)c1`, the IC50 is > 39.8 µM (inactive). Turning to `CCN(CC)CCNC(=O)c1ccc(NC(=O)c2cn(-c3ccccc3)nc2-c2cccs2)cc1`, the IC50 is > 39.8 µM (inactive). For the compound `CC1=CC(C)(C)Nc2ccc(OC(=O)C(C)N3C(=O)c4ccccc4C3=O)cc21` (stereo not given), the IC50 result is “inactive”. For `COc1cc(C)c2sc3ccccc3c(=O)c2c1NCCN(C)C`, the IC50 is > 39.8 µM (inactive).

Consider `CN(C)CCCN(C(=O)CCc1ccccc1)c1nc2ccc(Br)cc2s1`, for which the IC50 is > 39.8 µM (inactive).

For orientation: IC50 means the concentration at which inhibition is half-maximal.

(Values after PubChem BioAssay AID651760 (The Scripps Research Institute Molecular Screening Center, 2012).)
